According to patent US20200362174A1, “COMPOUNDS AND METHODS FOR OPTICAL SENSING OF ELECTRICAL ACTIVITY IN BIOLOGICAL SYSTEMS” (UNIVERSITY OF CONNECTICUT, priority 2018, published 2020):
Values joined by “and” are separate entries in the source; they are usually repeats but may differ in a detail not shown here. Equal entries are not always repeated. “Also recorded” adds a separate entry of the source. Structures can show the parent of a compound that is named as a salt.

Legend:
[1] = voltage sensitivity testing on the voltage clamped hemispherical lipid bilayer (HLB) apparatus
[2] = water solubility / deliverability to membranes (in words); assay type: physicochemical; conditions: delivery to the membrane

Structure (SMILES): CN(CCCCCCCCCCCCNC(=O)CCCCCCCCCCCNC(=O)CCc1c([N+](=O)[O-])cc([N+](=O)[O-])c(Nc2c([N+](=O)[O-])cc([N+](=O)[O-])cc2[N+](=O)[O-])c1[N+](=O)[O-])c1ccc2cc(/C=C/c3cc[n+](CCCCS(=O)(=O)[O-])cc3)ccc2c1 [PY6256]
- ΔF/F per 100 mV in Dynamic Range (mV) ([1]; dynamic range [0, 100] mV): 39%
- ΔF/F per 100 mV in Dynamic Range (mV) ([1]; dynamic range [−100, 0] mV): 24%

Structure (SMILES): CC[N+](CC)(CC)CCC[n+]1ccc(/C=C/c2ccc3cc(N(C)CCCCCCCCCCCCNC(=O)CCCCCCCCCCCNC(=O)CCc4c([N+](=O)[O-])cc([N+](=O)[O-])c(Nc5c([N+](=O)[O-])cc([N+](=O)[O-])cc5[N+](=O)[O-])c4[N+](=O)[O-])ccc3c2)cc1 [TBFQ 15]
- ΔF/F per 100 mV ([1]; no dynamic range printed, electrochromic behavior): 8% and 8 ± 3%

Structure (SMILES): CCCCN(CCCC)c1ccc2cc(C=Cc3cc[n+](CCCS(=O)(=O)[O-])cc3)ccc2c1 [Di-4-ANEPPS, 4-(2-(6-(dibutylamino)-2-naphthalenyl)ethenyl)-1-(3-sulfopropyl)pyridinium hydroxide inner salt, reference compound]
- voltage sensitivity / voltage dependence in words [1]: approximately linear voltage dependence
- voltage sensitivity ([1]; approximately linear over a broad range of applied voltage): 12 %/100 mV

Structure (SMILES): CN(CCCCCCCCCCCCNC(=O)CCCCCCCCCCCNC(=O)COCCOCCNC(=O)CCc1c([N+](=O)[O-])cc([N+](=O)[O-])c([N-]c2c([N+](=O)[O-])cc([N+](=O)[O-])cc2[N+](=O)[O-])c1[N+](=O)[O-])c1ccc2cc(/C=C/c3cc[n+](CCOCCOCCO)cc3)ccc2c1 [PY6242]
- solubility in words [2]: Low solubility

Structure (SMILES): CC[N+](CC)(CC)CCC[n+]1ccc(/C=C/c2ccc3cc(N(C)CCCCCCCCCCCCNC(=O)CCCCCCCCCCCNC(=O)COCCOCCNC(=O)CCc4c([N+](=O)[O-])cc([N+](=O)[O-])c(Nc5c([N+](=O)[O-])cc([N+](=O)[O-])cc5[N+](=O)[O-])c4[N+](=O)[O-])ccc3c2)cc1 [TBFQ 17]
- voltage sensitivity / voltage dependence in words [1]: better sensitivity than TBFQ 16; also recorded: responses in the physiological range that are larger than any previous fast VSDs
- τ-off [1]: 7 ± 2 ms
- τ-on [1]: 12 ± 2 ms
- ΔF/F per 100 mV in Dynamic Range (mV) ([1]; dynamic range [−100, 0] mV): 66 ± 15%

Structure (SMILES): CC[N+](CC)(CC)CCC[n+]1ccc(/C=C/c2ccc3cc(N(C)CCOCCOCCNC(=O)CCCCCCCCCCCNC(=O)COCCOCCNC(=O)CCc4c([N+](=O)[O-])cc([N+](=O)[O-])c(Nc5c([N+](=O)[O-])cc([N+](=O)[O-])cc5[N+](=O)[O-])c4[N+](=O)[O-])ccc3c2)cc1 [TBFQ 16]
- voltage sensitivity / voltage dependence in words [1]: high voltage sensitivity
- τ-off [1]: 5 ± 1 ms
- τ-on [1]: 11 ± 2 ms
- change in fluorescence/100 mV ([1]; […], dye on the inside, 20 ms voltage steps): 36%
- ΔF/F per 100 mV in Dynamic Range (mV) ([1]; dynamic range [−200, −100] mV): 56 ± 13%
